Data taken from ChEMBL document CHEMBL4219190, “Studies on synthesis of novel pyrido[2,3-d]pyrimidine derivatives, evaluation of their antimicrobial activity and molecular docking” (Bioorg Med Chem Lett, 2018).
Values after ≈ are worked out from the molar mass of the structure shown. Active and inactive are the calls of the source. No cut-off for these calls is given here.

Experiments:
Pichia sporocuriosa [1] = assay: Antifungal activity against Issatchenkia hanoiensis MTCC 4755 after 24 hrs by well diffusion method; type: functional; settings: MTCC 4755, 24 h
Raoultella planticola [2] = assay: Antibiofilm activity against Klebsiella planticola MTCC 530 after 24 hrs by crystal violet staining-based assay; type: functional, organism-based
Candida albicans [3] = assay: Antifungal activity against Candida albicans MTCC 854 after 24 hrs by well diffusion method; type: functional
[Candida] aaseri [4] = Antifungal activity against Candida aaseri MTCC 1962 after 24 hrs by well diffusion method; type: functional; settings: Yamadazyma aaseri, MTCC 1962, 24 h
Raoultella planticola [5] = assay: Bactericidal activity against Klebsiella planticola MTCC 530 incubated for 24 hrs followed by transfer of microbial suspension to Mueller Hinton agar plates and measured after 24 hrs post transfer; type: functional
Nakaseomyces glabratus [6] = assay: Antifungal activity against Candida glabrata MTCC 3019 after 24 hrs by well diffusion method; type: functional; settings: MTCC 3019, 24 h
Candida albicans [7] = assay: Antifungal activity against Candida albicans MTCC 4748 after 24 hrs by well diffusion method; type: functional
Pichia kudriavzevii [8] = assay: Fungicidal activity against Candida krusei MTCC 3020 incubated for 24 hrs followed by transfer of microbial suspension to Sabouraud dextrose agar plates and measured after 24 hrs post transfer; type: functional; settings: MTCC 3020, 24 h
Pseudomonas aeruginosa [9] = assay: Antibiofilm activity against Pseudomonas aeruginosa MTCC 2453 after 24 hrs by crystal violet staining-based assay; type: functional, organism-based
Candida parapsilosis [10] = assay: Antifungal activity against Candida parapsilosis MTCC 1744 after 24 hrs by well diffusion method; type: functional
Micrococcus luteus [11] = assay: Antibacterial activity against Micrococcus luteus MTCC 2470 after 24 hrs by well diffusion method; type: functional
Pichia sporocuriosa [12] = assay: Fungicidal activity against Issatchenkia hanoiensis MTCC 4755 incubated for 24 hrs followed by transfer of microbial suspension to Sabouraud dextrose agar plates and measured after 24 hrs post transfer; type: functional; settings: MTCC 4755, 24 h
Escherichia coli [13] = assay: Antibacterial activity against Escherichia coli MTCC 739 after 24 hrs by well diffusion method; type: functional
Candida albicans [14] = assay: Fungicidal activity against Candida albicans MTCC 227 incubated for 24 hrs followed by transfer of microbial suspension to Sabouraud dextrose agar plates and measured after 24 hrs post transfer; type: functional
Candida albicans [15] = assay: Fungicidal activity against Candida albicans MTCC 1637 incubated for 24 hrs followed by transfer of microbial suspension to Sabouraud dextrose agar plates and measured after 24 hrs post transfer; type: functional
Candida albicans [16] = assay: Fungicidal activity against Candida albicans MTCC 3018 incubated for 24 hrs followed by transfer of microbial suspension to Sabouraud dextrose agar plates and measured after 24 hrs post transfer; type: functional
Candida albicans [17] = assay: Antifungal activity against Candida albicans MTCC 3017 after 24 hrs by well diffusion method; type: functional; settings: MTCC 3017, 24 h
Candida albicans [18] = assay: Antifungal activity against Candida albicans MTCC 7315 after 24 hrs by well diffusion method; type: functional; settings: MTCC 7315, 24 h
Candida albicans [19] = assay: Fungicidal activity against Candida albicans MTCC 4748 incubated for 24 hrs followed by transfer of microbial suspension to Sabouraud dextrose agar plates and measured after 24 hrs post transfer; type: functional
Candida albicans [20] = assay: Antifungal activity against Candida albicans MTCC 227 after 24 hrs by well diffusion method; type: functional
Nakaseomyces glabratus [21] = assay: Fungicidal activity against Candida glabrata MTCC 3019 incubated for 24 hrs followed by transfer of microbial suspension to Sabouraud dextrose agar plates and measured after 24 hrs post transfer; type: functional; settings: MTCC 3019, 24 h
Staphylococcus aureus [22] = assay: Antibacterial activity against Staphylococcus aureus MTCC 96 after 24 hrs by well diffusion method; type: functional
Micrococcus luteus [23] = assay: Bactericidal activity against Micrococcus luteus MTCC 2470 incubated for 24 hrs followed by transfer of microbial suspension to Mueller Hinton agar plates and measured after 24 hrs post transfer; type: functional
Bacillus subtilis [24] = assay: Antibiofilm activity against Bacillus subtilis MTCC 121 after 24 hrs by crystal violet staining-based assay; type: functional, organism-based
Candida albicans [25] = assay: Fungicidal activity against Candida albicans MTCC 183 incubated for 24 hrs followed by transfer of microbial suspension to Sabouraud dextrose agar plates and measured after 24 hrs post transfer; type: functional; settings: MTCC 183, 24 h
Staphylococcus aureus [26] = assay: Antibiofilm activity against Staphylococcus aureus MLS16 MTCC 2940 after 24 hrs by crystal violet staining-based assay; type: functional, organism-based
Candida albicans [27] = assay: Antifungal activity against Candida albicans MTCC 183 after 24 hrs by well diffusion method; type: functional; settings: MTCC 183, 24 h
Bacillus subtilis [28] = assay: Antibacterial activity against Bacillus subtilis MTCC 121 after 24 hrs by well diffusion method; type: functional
Pseudomonas aeruginosa [29] = assay: Bactericidal activity against Pseudomonas aeruginosa MTCC 2453 incubated for 24 hrs followed by transfer of microbial suspension to Mueller Hinton agar plates and measured after 24 hrs post transfer; type: functional
Candida albicans [30] = assay: Fungicidal activity against Candida albicans MTCC 3958 incubated for 24 hrs followed by transfer of microbial suspension to Sabouraud dextrose agar plates and measured after 24 hrs post transfer; type: functional
Candida parapsilosis [31] = assay: Fungicidal activity against Candida parapsilosis MTCC 1744 incubated for 24 hrs followed by transfer of microbial suspension to Sabouraud dextrose agar plates and measured after 24 hrs post transfer; type: functional
Staphylococcus aureus [32] = assay: Bactericidal activity against Staphylococcus aureus MLS16 MTCC 2940 incubated for 24 hrs followed by transfer of microbial suspension to Mueller Hinton agar plates and measured after 24 hrs post transfer; type: functional
Candida albicans [33] = assay: Antifungal activity against Candida albicans MTCC 1637 after 24 hrs by well diffusion method; type: functional
Raoultella planticola [34] = assay: Antibacterial activity against Klebsiella planticola MTCC 530 after 24 hrs by well diffusion method; type: functional
Pichia kudriavzevii [35] = assay: Antifungal activity against Candida krusei MTCC 3020 after 24 hrs by well diffusion method; type: functional; settings: MTCC 3020, 24 h
Escherichia coli [36] = assay: Bactericidal activity against Escherichia coli MTCC 739 incubated for 24 hrs followed by transfer of microbial suspension to Mueller Hinton agar plates and measured after 24 hrs post transfer; type: functional
Pseudomonas aeruginosa [37] = assay: Antibacterial activity against Pseudomonas aeruginosa MTCC 2453 after 24 hrs by well diffusion method; type: functional
Candida albicans [38] = assay: Fungicidal activity against Candida albicans MTCC 854 incubated for 24 hrs followed by transfer of microbial suspension to Sabouraud dextrose agar plates and measured after 24 hrs post transfer; type: functional
Candida albicans [39] = assay: Antifungal activity against Candida albicans MTCC 3018 after 24 hrs by well diffusion method; type: functional
[Candida] aaseri [40] = Fungicidal activity against Candida aaseri MTCC 1962 incubated for 24 hrs followed by transfer of microbial suspension to Sabouraud dextrose agar plates and measured after 24 hrs post transfer; type: functional; settings: Yamadazyma aaseri, MTCC 1962, 24 h
Staphylococcus aureus [41] = assay: Antibiofilm activity against Staphylococcus aureus MTCC 96 after 24 hrs by crystal violet staining-based assay; type: functional, organism-based; settings: Staphylococcus aureus, MTCC 96, 24 h; read-out: IC50
Candida albicans [42] = assay: Fungicidal activity against Candida albicans MTCC 7315 incubated for 24 hrs followed by transfer of microbial suspension to Sabouraud dextrose agar plates and measured after 24 hrs post transfer; type: functional; settings: MTCC 7315, 24 h
Bacillus subtilis [43] = assay: Bactericidal activity against Bacillus subtilis MTCC 121 incubated for 24 hrs followed by transfer of microbial suspension to Mueller Hinton agar plates and measured after 24 hrs post transfer; type: functional
Candida albicans [44] = assay: Antifungal activity against Candida albicans MTCC 3958 after 24 hrs by well diffusion method; type: functional
Staphylococcus aureus [45] = assay: Antibacterial activity against Staphylococcus aureus MLS16 MTCC 2940 after 24 hrs by well diffusion method; type: functional
Candida albicans [46] = assay: Fungicidal activity against Candida albicans MTCC 3017 incubated for 24 hrs followed by transfer of microbial suspension to Sabouraud dextrose agar plates and measured after 24 hrs post transfer; type: functional; settings: MTCC 3017, 24 h
Staphylococcus aureus [47] = assay: Bactericidal activity against Staphylococcus aureus MTCC 96 incubated for 24 hrs followed by transfer of microbial suspension to Mueller Hinton agar plates and measured after 24 hrs post transfer; type: functional; settings: MTCC 96, 24 h

## O=C(NCc1ccccc1)c1nc(-c2ccccc2)c2c(C(F)(F)F)cc(-c3ccccc3)nc2n1
Pichia sporocuriosa [1]
  MIC: 31.2 µg/mL (≈ 64.4 µM)
Raoultella planticola [2]
  IC50: Not Active
Candida albicans [3]
  MIC: inactive
[Candida] aaseri [4]
  MIC: 31.2 µg/mL (≈ 64.4 µM)
Raoultella planticola [5]
  MBC: inactive
Nakaseomyces glabratus [6]
  MIC: 15.6 µg/mL (≈ 32.2 µM)
Candida albicans [7]; MTCC 4748, 24 h
  MIC: 62.5 µg/mL (≈ 129 µM)
Pichia kudriavzevii [8]
  MFC: 31.2 µg/mL (≈ 64.4 µM)
Pseudomonas aeruginosa [9]
  IC50: Not Active
Candida parapsilosis [10]; MTCC 1744, 24 h
  MIC: 31.2 µg/mL (≈ 64.4 µM)
Micrococcus luteus [11]
  MIC: inactive
Pichia sporocuriosa [12]
  MFC: 62.5 µg/mL (≈ 129 µM)
Escherichia coli [13]
  MIC: inactive
Candida albicans [14]
  MFC: inactive
Candida albicans [15]
  MFC: inactive
Candida albicans [16]
  MFC: inactive
Candida albicans [17]
  MIC: 31.2 µg/mL (≈ 64.4 µM)
Candida albicans [18]
  MIC: 62.5 µg/mL (≈ 129 µM)
Candida albicans [19]; MTCC 4748, 24 h
  MFC: 62.5 µg/mL (≈ 129 µM)
Candida albicans [20]
  MIC: inactive
Nakaseomyces glabratus [21]
  MFC: 31.2 µg/mL (≈ 64.4 µM)
Staphylococcus aureus [22]; MTCC 96, 24 h
  MIC: 31.2 µg/mL (≈ 64.4 µM)
Micrococcus luteus [23]
  MBC: inactive
Bacillus subtilis [24]
  IC50: Not Active
Candida albicans [25]
  MFC: 62.5 µg/mL (≈ 129 µM)
Staphylococcus aureus [26]
  IC50: Not Active
Candida albicans [27]
  MIC: 31.2 µg/mL (≈ 64.4 µM)
Bacillus subtilis [28]
  MIC: inactive
Pseudomonas aeruginosa [29]
  MBC: inactive
Candida albicans [30]
  MFC: inactive
Candida parapsilosis [31]; Lodderomyces parapsilosis, MTCC 1744, 24 h
  MFC: 62.5 µg/mL (≈ 129 µM)
Staphylococcus aureus [32]
  MBC: inactive
Candida albicans [33]
  MIC: inactive
Raoultella planticola [34]
  MIC: inactive
Pichia kudriavzevii [35]
  MIC: 15.6 µg/mL (≈ 32.2 µM)
Escherichia coli [36]
  MBC: inactive
Pseudomonas aeruginosa [37]
  MIC: inactive
Candida albicans [38]
  MFC: inactive
Candida albicans [39]
  MIC: inactive
[Candida] aaseri [40]
  MFC: 62.5 µg/mL (≈ 129 µM)
Staphylococcus aureus [41]
  IC50: 21.6 µg/mL (≈ 44.6 µM)
Candida albicans [42]
  MFC: 62.5 µg/mL (≈ 129 µM)
Bacillus subtilis [43]
  MBC: inactive
Candida albicans [44]
  MIC: inactive
Staphylococcus aureus [45]
  MIC: inactive
Candida albicans [46]
  MFC: 62.5 µg/mL (≈ 129 µM)
Staphylococcus aureus [47]
  MBC: 31.2 µg/mL (≈ 64.4 µM)

## CCCNC(=O)c1nc(-c2ccccc2)c2c(C(F)(F)F)cc(-c3ccccc3)nc2n1
Pichia sporocuriosa [1]
  MIC: 31.2 µg/mL (≈ 71.5 µM)
Candida albicans [3]; MTCC 854, 24 h
  MIC: 31.2 µg/mL (≈ 71.5 µM)
[Candida] aaseri [4]
  MIC: 15.6 µg/mL (≈ 35.7 µM)
Nakaseomyces glabratus [6]
  MIC: 7.8 µg/mL (≈ 17.9 µM)
Candida albicans [7]
  MIC: inactive
Pichia kudriavzevii [8]
  MFC: 31.2 µg/mL (≈ 71.5 µM)
Candida parapsilosis [10]
  MIC: inactive
Micrococcus luteus [11]
  MIC: inactive
Pichia sporocuriosa [12]
  MFC: 62.5 µg/mL (≈ 143 µM)
Escherichia coli [13]
  MIC: inactive
Candida albicans [14]; MTCC 227, 24 h
  MFC: 31.2 µg/mL (≈ 71.5 µM)
Candida albicans [15]
  MFC: inactive
Candida albicans [16]
  MFC: inactive
Candida albicans [17]
  MIC: 15.6 µg/mL (≈ 35.7 µM)
Candida albicans [18]
  MIC: 15.6 µg/mL (≈ 35.7 µM)
Candida albicans [19]
  MFC: inactive
Candida albicans [20]; MTCC 227, 24 h
  MIC: 31.2 µg/mL (≈ 71.5 µM)
Nakaseomyces glabratus [21]
  MFC: 15.6 µg/mL (≈ 35.7 µM)
Staphylococcus aureus [22]
  MIC: inactive
Candida albicans [25]
  MFC: 31.2 µg/mL (≈ 71.5 µM)
Candida albicans [27]
  MIC: 15.6 µg/mL (≈ 35.7 µM)
Bacillus subtilis [28]
  MIC: inactive
Candida albicans [30]
  MFC: inactive
Candida parapsilosis [31]
  MFC: inactive
Candida albicans [33]
  MIC: inactive
Raoultella planticola [34]
  MIC: inactive
Pichia kudriavzevii [35]
  MIC: 15.6 µg/mL (≈ 35.7 µM)
Pseudomonas aeruginosa [37]
  MIC: inactive
Candida albicans [38]; MTCC 854, 24 h
  MFC: 62.5 µg/mL (≈ 143 µM)
Candida albicans [39]
  MIC: inactive
[Candida] aaseri [40]
  MFC: 15.6 µg/mL (≈ 35.7 µM)
Candida albicans [42]
  MFC: 31.2 µg/mL (≈ 71.5 µM)
Candida albicans [44]
  MIC: inactive
Staphylococcus aureus [45]
  MIC: inactive
Candida albicans [46]
  MFC: 15.6 µg/mL (≈ 35.7 µM)
